Test results as given in patent publication US20250143289A1, “BIO-CONTROL COMBINATIONS, COMPOSITIONS AND METHOD OF USE” (DECCO WORLDWIDE POST-HARVEST HOLDINGS B.V., priority 2022, published 2025).

System: Penicillium digitatum (Pd)
Experiment: Biocontrol efficacy on post-harvest green mold decay of harvested oranges (online spraying, drying tunnel, storage)
Assay type: in vivo
Details: online spraying at 2 L/tonne of fruits, dried in drying tunnel, observed 36 days after storage, amounts per treatment as in Table 1
Procedure: A tank mix bio-control combination was prepared consisting of Candida oleophila strain O and sodium bicarbonate. […] The microbial component was applied as water dispersible granules. The concentration of C. oleophila strain O was 2.33 g/L (0.23% w/v) and the biologically effective amount of the strain was 3×10^10 cfu/gm. The concentration of the C. oleophila strain O used was varying between 0.1 to 5% w/v of the combination.
The biocontrol efficacy of the combination of the present invention on post-harvest fungal disease caused by green mold was evaluated. […] The harvested oranges were treated with the biocontrol combination and then subjected to drying in a drying tunnel. […] The oranges were treated by online spraying of each treatment. The biologically effective amount of Candida oleophila is 3×10^10 cfu/g of the combination. Each application is made at a rate 2 L/tonne of citrus fruits. The observations were made on the treated oranges and the untreated control at 36 days after storage.

Q: Which “% decay on fruits” value does the source give for `O=C([O-])O.[Na+]` [Sodium bicarbonate] here?
A: Its value is 15%.
